We go through one compound from ChEMBL document CHEMBL3112539, “Synthesis of neoglycosphingolipid from methoxyamino-functionalized ceramide” (Bioorg Med Chem Lett, 2014).

For experiment [1], the target named is T1, Endoglycoceramidase II (Rhodococcus sp) (UniProt A0ACD6B832). Put plainly: Inhibition of Rhodococcus sp. recombinant endoglycoceramidase 2 hydrolytic activity assessed as lactose released from (2S,3S,4R)-2-[N-(octadecanoyl)amino]-1-{O-[beta-galactosylpyranosyl-(1->4)-beta-glucopyranosyl]}octadecane-1,3,4-triol at 0.27 mM after 15 mins by modified Park and Johnson method.
T1 sequence (A0ACD6B832 as listed by the source): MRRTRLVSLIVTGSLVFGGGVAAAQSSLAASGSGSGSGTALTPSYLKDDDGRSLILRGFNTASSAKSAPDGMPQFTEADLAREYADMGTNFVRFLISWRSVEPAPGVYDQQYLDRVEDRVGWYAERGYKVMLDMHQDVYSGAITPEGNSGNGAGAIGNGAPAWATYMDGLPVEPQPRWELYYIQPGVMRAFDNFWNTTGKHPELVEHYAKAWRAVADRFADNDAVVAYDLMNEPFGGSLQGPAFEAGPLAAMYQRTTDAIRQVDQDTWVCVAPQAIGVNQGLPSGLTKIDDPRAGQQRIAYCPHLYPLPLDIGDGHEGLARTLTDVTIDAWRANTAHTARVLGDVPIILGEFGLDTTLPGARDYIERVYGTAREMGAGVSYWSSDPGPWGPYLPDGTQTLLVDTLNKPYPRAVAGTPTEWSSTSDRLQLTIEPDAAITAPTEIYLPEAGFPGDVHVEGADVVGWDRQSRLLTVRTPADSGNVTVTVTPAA

The target in experiment [2] is T1, Endoglycoceramidase II (Rhodococcus sp). Put plainly: Competitive inhibition of Rhodococcus sp. recombinant endoglycoceramidase 2 hydrolytic activity assessed as lactose released from (2S,3S,4R)-2-[N-(octadecanoyl)amino]-1-{O-[beta-galactosylpyranosyl-(1->4)-beta-glucopyranosyl]}octadecane-1,3,4-triol at 0.27 mM after 15 mins by modified Park and Johnson method.

The target is the same in experiment [3]. Put plainly: Inhibition of Rhodococcus sp. recombinant endoglycoceramidase 2 hydrolytic activity assessed as lactose released from O-LacCer at 0.74 mM after 15 mins by modified Park and Johnson method.

The source made the active and inactive calls. The calls are words filed in the database; no cut-off is given here.

On to `CCCCCCCCCCCCCCCCCC(=O)N[C@@H](CN(OC)[C@@H]1O[C@H](CO)[C@@H](O[C@@H]2O[C@H](CO)[C@H](O)[C@H](O)[C@H]2O)[C@H](O)[C@H]1O)[C@H](O)[C@H](O)CCCCCCCCCCCCCC`, for which the inhibition result in experiment [1] and in experiment [2] was “Active” each time. For the same compound, the inhibition entry in experiment [3] is “inactive”.
